From patent US20150104868A1, “Methods of Maintaining and Improving Biological Cell Function and Activity” (GARGILL INCORPORATED, priority 2012, published 2015)
“Also recorded” adds a separate entry of the source. Where two headings read alike, the source gives them in different places.

Columns and labels:
[1] = test system: Mouse intestine (entero-endocrine) STC-1 cells
Protocol: Appropriate blanks, positive controls, and standards were also included.
The lactate dehydrogenase (LDH) leakage from cells was analyzed in the supernatants as a marker for cytotoxic cell death.

HUVEC cells [2] = assay: HUVEC cell viability assay (trypan blue, percentage of dead cells); format: cell-based, human; settings: ERT/MAN 5 mM 1 h before, SIN-1 0.5 mM, CML 1 micromolar
Protocol: A HUVEC cell line (CRL-1730) was obtained from American Type Culture Collection (ATCC) of Manassas, Va. […] The prepared cells were maintained in collagen coated T75 flasks (Greiner Bio-one) at 37° C. in a 5% CO2 atmosphere. The prepared cells were subjected to various stressors. Stressors, for purposes of the examples, include conditions of stress caused by glucose directly or indirectly through the formation or elevation of other substances that cause stress. Diabetic stressors include high glucose (HG; 30 mM, 24 h), TNFα: pro-inflammatory agent, Nε carboxymethyllysine: advanced glycation end (AGE) product, and SIN-1: peroxynitrite generator. Prepared cells were also exposed to normal glucose (NG; 7 mM, 24 h) as a control. The prepared cells were seeded in 6 well plates and T75 flasks and grown until 80% confluence. The medium was removed, and the cells were washed with Hank's Balanced Salt Solution (HBSS). […] The vehicle solution is the solvent for the test compounds, in this case being the medium without supplements. […] The cells described above were also incubated for 24 hours with a 7 mM, normal glucose (NG) solution or in some instances, with a 15 mM, intermediary glucose (IG) solution. See, for example, FIG. 6. Subsequently, the cells were incubated for 24 hours. The same protocol was used for incubation with Nε-(carboxymethyl)lysine (CML, final concentration 1 micromolar) and 1,3-morpholino sidnonimine (SIN-1, final concentration 0.5 mM). […] In a cell viability assay, fresh, untreated HUVEC cells were grown in 6 well plates until 80% confluence. Subsequently, the incubation medium was removed and the cells were washed with HBSS and harvested with trypsin. All cell material, including the medium and the HBSS wash, was collected and centrifuged for 5 minutes at 500×g. […] The number of viable (white) and dead (blue) cells were counted in 25 squares, and the count was repeated an additional two times for each sample, for a total of three counts per sample. […] The percentage of dead cells was then calculated with the formula: (blue cells/(blue cells+white cells))*100.

HUVEC cells [3] = assay: Oxidative damage: protein carbonyls in HUVEC; format: cell-based, human; settings: HG 30 mM glucose 24 h, with or without 5 mM ERT/MAN
Protocol: The prepared cells were seeded in 6 well plates and T75 flasks and grown until 80% confluence. The medium was removed, and the cells were washed with Hank's Balanced Salt Solution (HBSS). […] The vehicle solution is the solvent for the test compounds, in this case being the medium without supplements. […] The cells described above were also incubated for 24 hours with a 7 mM, normal glucose (NG) solution or in some instances, with a 15 mM, intermediary glucose (IG) solution. See, for example, FIG. 6. Subsequently, the cells were incubated for 24 hours. The same protocol was used for incubation with Nε-(carboxymethyl)lysine (CML, final concentration 1 micromolar) and 1,3-morpholino sidnonimine (SIN-1, final concentration 0.5 mM). […] Hyperglycemia is strongly associated with oxidative stress, an imbalance between the formation of reactive oxygen species and the present antioxidants. Excess reactive oxygen species react with critical cellular targets, viz. membrane lipids, proteins and (deoxy)ribonucleic acids. […] Accordingly, one of the targeted assays included studying a comparison of HG to HGERT conditions, where the oxidative damage was evaluated showing that the protein carbonyls decreased from 6.55 nM/mg protein with HG to 3.77 with […]=0.089). Protein carbonyls are end products of reactions between proteins and reactive oxygen species (ROS), formed during oxidative stress. […]

O=C(CO)[C@@H](O)[C@H](O)[C@H](O)CO[C@H]1O[C@H](CO)[C@@H](O)[C@H](O)[C@H]1O [6-O-α-D-glucopyranosyl-D-fructose]
cell death (leakage of lactate dehydrogenase) [1]: cell death was higher

O=C(CO)[C@@H](O)[C@H](O)[C@H](O)CO [fructose]
cell death (leakage of lactate dehydrogenase) ([1]; STC-1 cells, 10% w/v, 2 hours at 37° C.): cell death was higher

[NH-]c1c[n+](N2CCOCC2)no1 [SIN-1, 3-morpholinosidnonimine]
percentage of dead cells (Average) (HUVEC cells [2]; HG 30 mM glucose 24 h, listed as SIN): 12.59% | percentage of dead cells (Average) (HUVEC cells [2]; NG 7 mM glucose 24 h): significant increase in the amount of dead cells; also recorded: increased the number of dead cells | percentage of dead cells (Average) (HUVEC cells [2]; NG 7 mM glucose 24 h, listed as SIN): 12.29%

OC[C@H]1O[C@@](CO)(O[C@H]2O[C@H](CO)[C@@H](O)[C@H](O)[C@H]2O)[C@@H](O)[C@@H]1O [sucrose]
cell death (leakage of lactate dehydrogenase) [1]: cell death was higher

OC[C@@H](O)[C@@H](O)[C@H](O)[C@H](O)CO [MAN, (2R,3R,4R,5R)-hexaan-1,2,3,4,5,6-hexol, reference compound]
protein carbonyls (HUVEC cells [3]): did not reduce protein carbonyls
